Laboratory results from patent US10982196B2, “Immunotherapy targeting intracellular pathogens” (LIFE SCIENCES RESEARCH PARTNERS VZW, priority 2008, dated 2021).

Experiments:
[1] = system: IDO (indolamine-2,3-dioxygenase); format: cell-based, BALB/c; details: dendritic cells pre-loaded with SEQ ID NO:5 or 7, 8 h co-culture with CD4+ T cells of mice immunised with SEQ ID NO:6 or 8; example written in present tense
[2] = system: induced nitric oxide synthase; test: Reactive nitrogen intermediates in antigen-presenting cells, RT-PCR for transcripts of nitric oxide synthase; format: cell-based, C57Bl/6 mice; details: dendritic cells co-cultured 6 h with CD4+ T cells and peptide of SEQ ID NO:4; example written in present tense
dendritic cells [3] = test: Reactive oxygen intermediates in antigen-presenting cells co-cultured with CD4+ T cells expanded with modified ESAT-6 epitope, Facs (DCFDA); format: cell-based, C57Bl/6 mice; details: dendritic cells loaded with SEQ ID NO:3, 2 h co-culture with CD4+ T cells expanded with SEQ ID NO:4; example written in present tense
dendritic cells [4] = details: dendritic cells loaded with peptide of SEQ ID NO:1, 2 h co-culture with CD4+ T cell line expanded with the peptide; compared with line expanded with SEQ ID NO:1; FIG. 1
Method: Adenovirus of serotype 5 (Ad.RR5, E1/E3-deleted) was used in these experiments. Thus, 5 μL of a solution containing 2×10^11 viral particles/ml was administered by the intravenous route to 6 weeks old C57Bl/6 mice. Ten days later, the spleen of such mice was recovered and CD4+ T cells purified by magnetic sorting.
CD4+ T cells obtained from Ad.RR5-immunized mice were cultured in the presence of T lymphocyte-depleted spleen adherent cells used as antigen-presenting cells pre-incubated with either peptide of SEQ ID NO:1 or peptide of SEQ ID NO:2. After two cycles of restimulation, the CD4+ T cell lines were allowed to rest for 10 days. […] The generation of reactive oxygen intermediates (ROI) by dendritic cells was then evaluated after 2 h of co-culture. Dendritic cells were prepared from the spleen of C57Bl/6 mice by sorting on magnetic beads coated with an anti-CD11c specific antibody.
Thus, 10^5 dendritic cells were incubated for 1 h with 10 μM DCFDA, a derivative of fluorescein used as an indicator of ROI generation. […] Fluorescence increases generated by DCFDA oxidation by reactive oxygen intermediates are read in a Facs gated on CD11c(+) cells.

## CGHCDKHIEQYLK (modified Th2R T-cell epitope; (1)..(4) thioreductase motif) [SEQ ID NO:6]
[1]
  expression of IDO in dendritic cells: induces a reverse signalling leading to expression of IDO

## CGHCEKKICKMEK (modified T-cell epitope of CSP antigen Plasmodium falciparum; (1)..(4) modified T-cell epitope) [SEQ ID NO:8]
[1]
  expression of IDO in dendritic cells: induces a reverse signalling leading to expression of IDO

## CGHCFAGIEAAAS (modified ESAT6 T-cell epitope; (1)..(4) thioreductase motif) [SEQ ID NO:4]
[2]
  production of reactive nitrogen intermediates in antigen-presenting cells: shown to be induced
Dendritic cells [3]
  production of reactive oxygen intermediates in antigen-presenting cells: shown to be induced

## CHGCPTLLYVLFEV (modified T-cell epitope of capsid protein adenovirus serotype 5; (1)..(4) thioreductase motif) [SEQ ID NO:2]
Dendritic cells [4]
  ROI produced by dendritic cells: significantly more ROI
